Measured values taken from paper PMC9578474, “In vitro and in silico β-lactamase inhibitory properties and phytochemical profile of Ocimum basilicum cultivated in central delta of Egypt” (Pharmaceutical Biology, 2022).

Tested on: T1, CTX-M β-lactamase (ESBL)
T1 construct: gene blaCTX-M
Assay: nitrocefin hydrolysis colorimetric assay (kit MAK222) with cell-free lysate of ESBL-producing E. coli
Type: biochemical

| SMILES | Value clavulanic acid | Value methyl cinnamate |
| --- | --- | --- |
| O=C(O)[C@H]1/C(=C/CO)O[C@@H]2CC(=O)N21 [clavulanic acid] | 8.1223 µg/mL | – |
| COC(=O)/C=C/c1ccccc1 [Methyl cinnamate] | – | 11.6008 µg/mL |
